Reference: PubChem BioAssay (NCI)
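Values below derive from 48-hour exposures of cells grown in 96-well plates, with endpoints linearly interpolated between the two concentrations bracketing the appropriate inhibition level. TGI is the concentration that stops growth completely.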

What was measured:
Experiment in all cases: growth of human tumour cells (NCI), 48 h
SF-295 CNS = test system: SF-295 CNS
OVCAR-3 ovarian = test system: OVCAR-3 ovarian
HCT-116 colon = test system: HCT-116 colon
UACC-62 melanoma = test system: UACC-62 melanoma
SF-539 CNS = test system: SF-539 CNS
SNB-75 CNS = test system: SNB-75 CNS
TK-10 renal = test system: TK-10 renal
RPMI-8226 leukemia = test system: RPMI-8226 leukemia
SK-OV-3 ovarian = test system: SK-OV-3 ovarian
786-0 renal = test system: 786-0 renal
MDA-N = test system: MDA-N
LOX IMVI melanoma = test system: LOX IMVI melanoma
K-562 leukemia = test system: K-562 leukemia
NCI/ADR-RES ovarian = test system: NCI/ADR-RES ovarian
UO-31 renal = test system: UO-31 renal
UACC-257 melanoma = test system: UACC-257 melanoma
SW-620 colon = test system: SW-620 colon
SK-MEL-28 melanoma = test system: SK-MEL-28 melanoma
SNB-19 CNS = test system: SNB-19 CNS
A498 renal = test system: A498 renal
OVCAR-5 ovarian = test system: OVCAR-5 ovarian
HCC-2998 colon = test system: HCC-2998 colon
DU-145 prostate = test system: DU-145 prostate
HOP-62 NSCLC = test system: HOP-62 NSCLC
HS 578T breast = test system: HS 578T breast
SR leukemia = test system: SR leukemia
SF-268 CNS = test system: SF-268 CNS
HT29 colon = test system: HT29 colon
MALME-3M melanoma = test system: MALME-3M melanoma
A549 NSCLC = test system: A549 NSCLC
MDA-MB-231 breast = test system: MDA-MB-231 breast
BT-549 breast = test system: BT-549 breast
HOP-92 NSCLC = test system: HOP-92 NSCLC
HCT-15 colon = test system: HCT-15 colon
M14 melanoma = test system: M14 melanoma
IGROV1 ovarian = test system: IGROV1 ovarian
MCF7 breast = test system: MCF7 breast
T-47D breast = test system: T-47D breast
ACHN renal = test system: ACHN renal
NCI-H226 lung = test system: NCI-H226 lung
EKVX NSCLC = test system: EKVX NSCLC
MOLT-4 leukemia = test system: MOLT-4 leukemia
KM12 colon = test system: KM12 colon
OVCAR-4 ovarian = test system: OVCAR-4 ovarian
NCI-H460 lung = test system: NCI-H460 lung
HL-60(TB) leukemia = test system: HL-60(TB) leukemia
CCRF-CEM leukemia = test system: CCRF-CEM leukemia
NCI-H23 lung = test system: NCI-H23 lung
U251 CNS = test system: U251 CNS
PC-3 prostate = test system: PC-3 prostate
SK-MEL-5 melanoma = test system: SK-MEL-5 melanoma
NCI-H522 lung = test system: NCI-H522 lung
RXF 393 renal = test system: RXF 393 renal
SN12C renal = test system: SN12C renal
MDA-MB-435 = test system: MDA-MB-435
OVCAR-8 ovarian = test system: OVCAR-8 ovarian
COLO 205 colon = test system: COLO 205 colon
SK-MEL-2 melanoma = test system: SK-MEL-2 melanoma
CAKI-1 renal = test system: CAKI-1 renal

Measured: TGI

O=C(Nn1c(-c2ccccc2)nc2ccccc2c1=O)c1ccc(Cl)cc1
not listed: COLO 205 colon | SK-MEL-2 melanoma | CAKI-1 renal
> 100 µM: all other assays above

CCOc1cnc(C(O)(c2ccccc2)c2ccccc2)o1
not listed: TK-10 renal
> 100 µM: all other assays above

CCO/C=C1\SC(=S)N(c2ccc(OCC)cc2)C1=O
> 100 µM: all assays above
